# From article PMC12337082 (Journal of Biochemical and Molecular Toxicology, 2025)
# Columns and labels:
# MCF‐7 = test: Mitochondrial membrane potential (JC‐1) apoptosis assay, MCF‐7; assay type: cell-based, human; settings: MCF‐7, 50 μM, 24 h, MMP assay
# Protocol: (§1) Apoptosis was also investigated by evaluating mitochondrial membrane potential changes (MMP assay). MCF‐7, MDA‐MB‐231, and L‐929 cells were stained with JC‐1 dye according to the manufacturer's protocols (JC‐1 MMP Assay Kit, KA1324, Abnova). The apoptotic to healthy cell ratio was calculated using absorbances collected from two different fluorescence channels (535/595 for healthy cells, 485/535 for apoptotic cells) (Synergy H1, Biotech Instruments Inc., Vermont, USA).
# c‐PARP = test: Western blot cleaved PARP, MDA‐MB‐231; assay type: cell-based, human; settings: MDA‐MB‐231, 24 h, all concentrations (50 and 75 µM); not measurable in MCF‐7
# Protocol: Total protein levels were measured using the Take3 Multi‐Volume Plate (Synergy H1, BioTek Instruments Inc., Vermont, USA). In accordance with the classical protocol, transferred proteins were exposed to the following primary antibodies: Beta‐actin (NB600‐501, Novus Biologicals), Bax (SPM336, NBP2‐32809), Bcl‐2 (100/D5, NBP2‐15200), cleaved PARP (194C1439, NBP2‐27335), and COX‐2 (D‐12:sc‐166475, Santa Cruz). The bands were visualized with chemiluminescent HRP substrates (Western Bright ECL‐Advansta, K‐12045‐050). Using a chemiluminescence imaging system (Celvin S, BioStep), the relative quantification was done based on the level of β‐actin proteins.
# MDA‐MB‐231 = test: Mitochondrial membrane potential (JC‐1) apoptosis assay, MDA‐MB‐231; assay type: cell-based, human; settings: MDA‐MB‐231, 50 μM, 24 h, MMP assay
# Protocol: as §1
# PGE2 release = test: PGE2 ELISA, MDA‐MB‐231; assay type: cell-based, human; settings: Homo sapiens; MDA‐MB‐231, 50 µM, 24 h
# Protocol: PGE2 ELISA kit (ENZO, ADI‐900‐001) was used to determine prostaglandin synthesis levels. MCF‐7 and MDA‐MB‐231 breast cancer cells were cultured at a density of 1 × 10^6 cells/well in a 6‐well culture dish. […] Following 24 h of incubation, the medium was replaced with a fresh one, 10 µM arachidonic acid was added, and it was further incubated for 1 h. The PGE2 levels were determined according to the kit protocol.
# L‐929 = test: Mitochondrial membrane potential (JC‐1) apoptosis assay, L‐929; assay type: cell-based, mouse; settings: L‐929, 50 μM, 24 h, MMP assay
# Protocol: as §1
smiles,measurement,setting,value
"CCc1cccc2c3c([nH]c12)C(CC)(CC(=O)N/N=C/c1ccc(OC)cc1)OCC3 (racemic) [SGK 206, 2‐(1,8‐Diethyl‐1,3,4,9‐tetrahydropyrano[3,4‐b]indole‐1‐yl) acetic acid[(4‐methoxyphenyl)methylene]acetohydrazide]",Increase in apoptosis compared to the control group,MCF‐7,48%
same,c‐PARP (89‐kD fragment) protein change,c‐PARP,consistent activation
same,Increase in apoptosis compared to the control group,MDA‐MB‐231,57%
same,inhibition at 50 µM,PGE2 release,91%
same,Increase in apoptosis compared to the control group,L‐929,8%
